Values joined by “and” are separate entries in the source; they are usually repeats but may differ in a detail not shown here. Identical values can stand only once. Like-named read-outs stand apart in the source and are kept apart here.
What was measured:
NSCLC = assay: Efficacy: disease control rate at 3 months; type: in vivo, human
[1] = system: African Americans with NSCLC; assay: Treatment-related toxicities; type: in vivo, human; details: for Dermatologic, other than rash: Any, grade 1–3: erythema, hyperpigmentation, pruritus, xerodermia; for Nausea, grade 1–3: only one grade three nausea was recorded
[2] = other studies; cited from earlier work
[3] = Population pharmacokinetic modeling and covariate analysis; type: in vivo, human; details: for IIV V1, inter-individual variability on volume of distribution / IIVCL, inter-individual variability on clearance / IOV CL, inter-occasion variability on clearance: expressed as variance; for θKa, first-order absorption rate constant: fixed value; for clearance / Vd: human, plasma, oral; for Vd: θV1, volume of distribution
clinical = details: human, in vivo
[4] = human, in vivo
NSCLC patients = details: 150 mg erlotinib, cited from earlier work
[5] = Base model (n=26), Bootstrap median (95% CI)
[6] = Base model (n=26), Estimate (CV %)
[7] = Covariate model (LBM, n=26), Bootstrap median (95% CI)
[8] = Covariate model (LBM, n=26), Estimate (CV %)

C#Cc1cccc(Nc2ncnc3cc(OCCOC)c(OCCOC)cc23)c1 [erlotinib]
PD (NSCLC; All, n=52 evaluable patients): 40 (78) Number of patients (%) | PR (NSCLC; All, n=52 evaluable patients): 1 (2) Number of patients (%) | 1 year progression free rate (NSCLC; All, n=55 treated patients): 7% | 1 year survival rate (NSCLC; All, n=55 treated patients): 28% | Survival, Median (NSCLC; All, n=55 treated patients): 5.3 months | Survival, Range (NSCLC; All, n=55 treated patients): 0.9–42.8 months | TTP, Median (95% CI) (NSCLC; All, n=55 treated patients): 2.6 (1.9– 2.8) months | TTP, Range (NSCLC; All, n=55 treated patients): 0.3–20.2 months | DCR at 3 months (NSCLC; Arm A, n=26 evaluable patients): 6 (23) Number of patients (%) | PD (NSCLC; Arm A, n=26 evaluable patients): 20 (77) Number of patients (%) | PR (NSCLC; Arm A, n=26 evaluable patients): 1 (4) Number of patients (%) | 1 year progression free rate (NSCLC; Arm A, n=28): 10% | 1 year survival rate (NSCLC; Arm A, n=28): 30% | Survival, Median (NSCLC; Arm A, n=28): 5.3 months | Survival, Range (NSCLC; Arm A, n=28): 0.9–37.4 months | TTP, Median (95% CI) (NSCLC; Arm A, n=28): 2.8 (2.5–3.1) months | TTP, Range (NSCLC; Arm A, n=28): 0.6–14.4 months | DCR at 3 months (NSCLC; Arm B, n=26 evaluable patients): 6 (23) Number of patients (%) | PD (NSCLC; Arm B, n=26 evaluable patients): 20 (77) Number of patients (%) | PR (NSCLC; Arm B, n=26 evaluable patients): 0 Number of patients (%) | 1 year progression free rate (NSCLC; Arm B, n=27): 4% | 1 year survival rate (NSCLC; Arm B, n=27): 26% | Survival, Median (NSCLC; Arm B, n=27): 5.2 months | Survival, Range (NSCLC; Arm B, n=27): 1.3–42.8 months | TTP, Median (95% CI) (NSCLC; Arm B, n=27): 2.4 (1.5–2.7) months | TTP, Range (NSCLC; Arm B, n=27): 0.3–20.2 months | AST elevation ([1]; All, n=55): 4 (7) no. of pts (%) | Anorexia, grade 1–2 ([1]; All, n=55): 14 (25) no. of pts (%) | Anorexia, grade 3 ([1]; All, n=55): 3 (5) no. of pts (%) | Any grade 3+ toxicity ([1]; All, n=55): 11 (20) no. of pts (%) | Any grade 4/5 toxicity ([1]; All, n=55): 1 (2) no. of pts (%) | Dehydration, grade 1–2 ([1]; All, n=55): 1 (2) no. of pts (%) | Dehydration, grade 3 ([1]; All, n=55): 2 (4) no. of pts (%) | Diarrhea: Any grade ([1]; All, n=55): 16 (29) no. of pts (%) | Diarrhea: Grade 1 ([1]; All, n=55): 14 (25) no. of pts (%) | Diarrhea: Grade 2 ([1]; All, n=55): 2 (4) no. of pts (%) | Diarrhea: Grade 3+ ([1]; All, n=55): 0 no. of pts (%) | Hyperbilirubinemia ([1]; All, n=55): 1 (2) no. of pts (%) | Pneumonitis, grade 3 ([1]; All, n=55): 1 (2) no. of pts (%) | Rash, maximum grade: Any grade ([1]; All, n=55): 38 (69) no. of pts (%) | Rash, maximum grade: Grade 1 ([1]; All, n=55): 22 (40) no. of pts (%) | Rash, maximum grade: Grade 2 ([1]; All, n=55): 12 (22) no. of pts (%) | Rash, maximum grade: Grade 3 ([1]; All, n=55): 4 (7) no. of pts (%) | Xerostomia ([1]; All, n=55): 2 (4) no. of pts (%) | Dermatologic, other than rash: Any, grade 1–3 ([1]; All, n=55): 16 (29) no. of pts (%) | Nausea, grade 1–3 ([1]; All, n=55): 8 (15) no. of pts (%) | AST elevation ([1]; Arm A (fixed dose), n=28): 4 (14) no. of pts (%) | Anorexia, grade 1–2 ([1]; Arm A (fixed dose), n=28): 5 (18) no. of pts (%) | Anorexia, grade 3 ([1]; Arm A (fixed dose), n=28): 2 (7) no. of pts (%) | Any grade 3+ toxicity ([1]; Arm A (fixed dose), n=28): 5 (18) no. of pts (%) | Any grade 4/5 toxicity ([1]; Arm A (fixed dose), n=28): 1 (4) no. of pts (%) | Dehydration, grade 1–2 ([1]; Arm A (fixed dose), n=28): 0 no. of pts (%) | Dehydration, grade 3 ([1]; Arm A (fixed dose), n=28): 1 (4) no. of pts (%) | Diarrhea: Any grade ([1]; Arm A (fixed dose), n=28): 9 (32) no. of pts (%) | Diarrhea: Grade 1 ([1]; Arm A (fixed dose), n=28): 7 (25) no. of pts (%) | Diarrhea: Grade 2 ([1]; Arm A (fixed dose), n=28): 2 (7) no. of pts (%) | Diarrhea: Grade 3+ ([1]; Arm A (fixed dose), n=28): 0 no. of pts (%) | Hyperbilirubinemia ([1]; Arm A (fixed dose), n=28): 0 no. of pts (%) | Pneumonitis, grade 3 ([1]; Arm A (fixed dose), n=28): 1 (4) no. of pts (%) | Rash, maximum grade: Any grade ([1]; Arm A (fixed dose), n=28): 19 (68) no. of pts (%) | Rash, maximum grade: Grade 1 ([1]; Arm A (fixed dose), n=28): 12 (43) no. of pts (%) | Rash, maximum grade: Grade 2 ([1]; Arm A (fixed dose), n=28): 7 (25) no. of pts (%) | Rash, maximum grade: Grade 3 ([1]; Arm A (fixed dose), n=28): 0 no. of pts (%) | Xerostomia ([1]; Arm A (fixed dose), n=28): 0 no. of pts (%) | Dermatologic, other than rash: Any, grade 1–3 ([1]; Arm A (fixed dose), n=28): 7 (25) no. of pts (%) | Nausea, grade 1–3 ([1]; Arm A (fixed dose), n=28): 2 (7) no. of pts (%) | AST elevation ([1]; Arm B (dose adjusted), n=27): 0 no. of pts (%) | Anorexia, grade 1–2 ([1]; Arm B (dose adjusted), n=27): 9 (33) no. of pts (%) | Anorexia, grade 3 ([1]; Arm B (dose adjusted), n=27): 1 (4) no. of pts (%) | Any grade 3+ toxicity ([1]; Arm B (dose adjusted), n=27): 6 (22) no. of pts (%) | Any grade 4/5 toxicity ([1]; Arm B (dose adjusted), n=27): 0 no. of pts (%) | Dehydration, grade 1–2 ([1]; Arm B (dose adjusted), n=27): 1 (4) no. of pts (%) | Dehydration, grade 3 ([1]; Arm B (dose adjusted), n=27): 1 (4) no. of pts (%) | Diarrhea: Any grade ([1]; Arm B (dose adjusted), n=27): 7 (26) no. of pts (%) | Diarrhea: Grade 1 ([1]; Arm B (dose adjusted), n=27): 7 (26) no. of pts (%) | Diarrhea: Grade 2 ([1]; Arm B (dose adjusted), n=27): 0 no. of pts (%) | Diarrhea: Grade 3+ ([1]; Arm B (dose adjusted), n=27): 0 no. of pts (%) | Hyperbilirubinemia ([1]; Arm B (dose adjusted), n=27): 1 (4) no. of pts (%) | Pneumonitis, grade 3 ([1]; Arm B (dose adjusted), n=27): 0 no. of pts (%) | Rash, maximum grade: Any grade ([1]; Arm B (dose adjusted), n=27): 19 (70) no. of pts (%) | Rash, maximum grade: Grade 1 ([1]; Arm B (dose adjusted), n=27): 10 (37) no. of pts (%) | Rash, maximum grade: Grade 2 ([1]; Arm B (dose adjusted), n=27): 5 (19) no. of pts (%) | Rash, maximum grade: Grade 3 ([1]; Arm B (dose adjusted), n=27): 4 (15) no. of pts (%) | Xerostomia ([1]; Arm B (dose adjusted), n=27): 2 (7) no. of pts (%) | Dermatologic, other than rash: Any, grade 1–3 ([1]; Arm B (dose adjusted), n=27): 9 (33) no. of pts (%) | Nausea, grade 1–3 ([1]; Arm B (dose adjusted), n=27): 6 (22) no. of pts (%) | patients who experienced rash during the first cycle ([1]; Arm B, of the 27 enrolled patients): 18 patients | diarrhea, % of patients ([1]; all 55 treated patients): 29% | dose reductions for toxicity ([1]; all 55 treated patients): no dose reductions for toxicity | nausea, % of patients ([1]; all 55 treated patients): 15% | patients who experienced any grade 3 toxicity ([1]; all 55 treated patients (11 patients)): 20% | range of population estimates for CL/F [2]: 3.29 to 5.82 L/h | θFM (fraction of erlotinib converted to OSI-420, FMET=1/1+exp(FM)) [3, 5]: 1.22 (0.47, 3.33) | IIV V1, inter-individual variability on volume of distribution [3, 5]: 0.90 (0.40, 1.33) | IIVCL, inter-individual variability on clearance [3, 5]: 0.24 (0.005, 0.44) | IOV CL, inter-occasion variability on clearance [3, 5]: 0.58 (0.29, 0.89) | θFM (fraction of erlotinib converted to OSI-420, FMET=1/1+exp(FM)) [3, 6]: 1.41 (12.8) | IIV V1, inter-individual variability on volume of distribution [3, 6]: 0.92 (50.5) | IIVCL, inter-individual variability on clearance [3, 6]: 0.06 (80.8) | IOV CL, inter-occasion variability on clearance [3, 6]: 0.38 (55.5) | θKa, first-order absorption rate constant ([3]; Base model (n=26)): 1.04 h⁻¹ | θFM (fraction of erlotinib converted to OSI-420, FMET=1/1+exp(FM)) [3, 7]: 1.03 (0.23, 3.49) | θLBM, lean body mass covariate term [3, 7]: 1.75 (0.69, 3.08) | IIV V1, inter-individual variability on volume of distribution [3, 7]: 0.92 (0.43, 1.37) | IIVCL, inter-individual variability on clearance [3, 7]: 0.13 and 0.13 (0.001, 0.35) | IOV CL, inter-occasion variability on clearance [3, 7]: 0.51 (0.15, 0.85) | θFM (fraction of erlotinib converted to OSI-420, FMET=1/1+exp(FM)) [3, 8]: 0.88 (26.4) | θLBM, lean body mass covariate term [3, 8]: 1.71 (27.8) | IIV V1, inter-individual variability on volume of distribution [3, 8]: 0.95 (50.7) | IIVCL, inter-individual variability on clearance [3, 8]: 0.02 (127.1) | IOV CL, inter-occasion variability on clearance [3, 8]: 0.30 (67.9) | θKa, first-order absorption rate constant ([3]; Covariate model (LBM, n=26)): 1.04 h⁻¹ | clearance ([3]; both, θCL, erlotinib clearance, Base model (n=26), Bootstrap median (95% CI)): 104 mL/min | clearance ([3]; both, θCL, erlotinib clearance, Base model (n=26), Estimate (CV %)): 104 mL/min | clearance ([3]; both, θCL, erlotinib clearance, Covariate model (LBM, n=26), Bootstrap median (95% CI)): 106 mL/min | clearance ([3]; both, θCL, erlotinib clearance, Covariate model (LBM, n=26), Estimate (CV %)): 107 mL/min | Vd ([3]; both, Base model (n=26), Bootstrap median (95% CI)): 275 L | Vd ([3]; both, Base model (n=26), Estimate (CV %)): 284 L | Vd ([3]; both, Covariate model (LBM, n=26), Estimate (CV %)): 283 L | clearance ([3]; estimated erlotinib clearance from nonlinear mixed-effects modeling, this study): 104 mL/min | AUC(0-t) (clinical; AUC0–24): 12200 ± 6200 ng·h/mL | Tmax (clinical; Tmax): 5 h | AUC0–24 [4]: 17400 ± 8900 ng·h/mL | Tmax [4]: 2.5 (0–10) hrs | dose reductions due to adverse events (NSCLC patients; 81 Caucasian NSCLC patients): 14% | dose reductions due to adverse events (NSCLC patients; 1242 Asian NSCLC patients): 23%

Reference: article PMC4180036 (Clinical pharmacology and therapeutics, 2014)
